Assay results published in the NIST ThermoML archive (doi:10.1016/j.jct.2013.06.020).

Tests used:
[1] = 298.15 K, 101.33 kPa, Liquid; for speed of sound: Sing-around technique in a fixed-path interferometer; for mass density: Vibrating tube method
[2] = mn = molality of the nth substance listed, in mol/kg; details: 298.15 K, 101 kPa, Liquid; for speed of sound: Sing-around technique in a fixed-path interferometer; for mass density: Vibrating tube method

CCOC(=O)C(C)O (racemic) [DL-ethyl lactate]
[1]
Details	mass density [kg/m3]	speed of sound [m/s]
–	1028.37	1279.7

O=Cc1ccco1 [2-furaldehyde]
[1]
Details	mass density [kg/m3]	speed of sound [m/s]
–	1154.81	1440.2

OCc1ccco1 [2-hydroxymethylfuran]
[1]
Details	mass density [kg/m3]	speed of sound [m/s]
–	1130.27	1449.8

OCC1CCCO1 (stereo not given) [2-tetrahydrofurylmethanol]
[1]
Details	mass density [kg/m3]	speed of sound [m/s]
–	1050.75	1485.2

Cc1ccc(C=O)o1 [5-methylfurfural]
[1]
Details	mass density [kg/m3]	speed of sound [m/s]
–	1103.2	1447

CCCCOC(=O)C(C)O (stereo not given) [butyl 2-hydroxypropanoate]
[1]
Details	mass density [kg/m3]	speed of sound [m/s]
–	977.283	1285

CCCCOC(=O)CCC(C)=O [butyl levulinate]
[1]
Details	mass density [kg/m3]	speed of sound [m/s]
–	969.935	1341.3

CCOC(=O)CCC(C)=O [ethyl levulinate]
[1]
Details	mass density [kg/m3]	speed of sound [m/s]
–	1007.54	1351.2

COC(=O)C(C)O (stereo not given) [methyl 2-hydroxypropanoate]
[1]
Details	mass density [kg/m3]	speed of sound [m/s]
–	1087.43	1338.8

COC(=O)CCC(C)=O [methyl levulinate]
[1]
Details	mass density [kg/m3]	speed of sound [m/s]
–	1045.4	1386.2

COC(=O)CCC(C)=O [methyl levulinate] + O
[2]
Details	mass density [kg/m3]	speed of sound [m/s]
m1 = 0.0322	997.582	1499.2
m1 = 0.0375	997.646	1499.4
m1 = 0.0399	997.675	1499.7
m1 = 0.042	997.701	1499.7
m1 = 0.0537	997.774	1500
m1 = 0.0724	998.063	1500.9
m1 = 0.0737	998.08	1501
m1 = 0.1127	998.543	1503.2
m1 = 0.1571	999.079	1505.7
m1 = 0.1949	999.523	1507.7
m1 = 0.2491	1000.15	1510.6
m1 = 0.3297	1001.08	1514.6
m1 = 0.3905	1001.76	1517.5
m1 = 0.4721	1002.66	1521.3
m1 = 0.5562	1003.58	1525.1
m1 = 0.6293	1004.35	1527.8
m1 = 0.7107	1005.19	1530.9
m1 = 0.7782	1005.87	1533.4
m1 = 0.9597	1007.31	1539.2
m1 = 1.161	1008.76	1544.8

C=CC(=O)OC [methyl propenoate]
[1]
Details	mass density [kg/m3]	speed of sound [m/s]
–	949.174	1169

C=CC(=O)OC [methyl propenoate] + O
[2]
Details	mass density [kg/m3]	speed of sound [m/s]
m1 = 0.0393	997.315	1498.3
m1 = 0.0445	997.337	1498.7
m1 = 0.0475	997.348	1498.9
m1 = 0.0543	997.381	1499.1
m1 = 0.0631	997.409	1499.5
m1 = 0.0712	997.451	1499.9
m1 = 0.0962	997.547	1500.9
m1 = 0.1341	997.677	1502.1
m1 = 0.1473	997.72	1502.6
m1 = 0.1826	997.809	1503.8
m1 = 0.2485	998.068	1506.2
m1 = 0.3666	998.512	1510.6
m1 = 0.4288	998.73	1513.1
m1 = 0.5131	999.004	1516.7
